# Reference: publication PMC5977504, “Mucin architecture behind the immune response: design, evaluation and conformational analysis of an antitumor vaccine derived from an unnatural MUC1 fragment” (Chemical Science, 2015)
# Test: Degradation studies with human plasma (20% human serum)
# Type: in vitro ADME
# Details: 20% human serum (from human male AB plasma) in water, 37 °C, glycopeptide 0.5 mg·mL-1, sampled every hour, UPLC-micrOTOF-Q
# Excerpt: We examined then the stability of the unnatural MUC1 derivative in human plasma. To this end, we synthesized glycopeptides APDThr(α-D-GalNAc)RP and APDMeSer(α-D-GalNAc)RP (ESI ^†). The degradation of the glycopeptide containing threonine was faster (around 1.8-fold) compared to the unnatural compound. […]
# an r−6 averaging. The equilibrium distance range was set to rexp − 0.2 Å ≤ rexp ≤ rexp + 0.2 Å.
# Trajectories were run at 298 K, with a decay constant of 2000 ps and a time step of 1 fs.
# The force constants rk2 and rk3 used in each case were 10 kcal·mol−1·Å−2. The overall simulation length for the simulations was 20 ns. The coordinates were saved each 1 ps, thus, obtaining MD trajectories of 20000 frames each. A convergence within the equilibrium distance range was obtained in the simulations. The analysis of the MD-tar trajectories has been carried out with the cpptraj modules of AMBER 12.
# Degradation studies with human plasma.
# Commercially available serum from human male AB plasma was used. […] Degradation of the peptides was determined every hour by using UPLC-micrOTOF-Q (column: ACQUITY UPLC BEH C18 1,7; diameter: 2.1 mm and length: 100 mm), eluting a mixture of 5 µL of the glycopeptide-serum solution in 795 µL of water and employing an isocratic method (70% H2O, 30% acetonitrile, temperature: […]
smiles,measurement,value
CC(=O)N[C@H]1[C@@H](O[C@H](C)[C@H](NC(=O)[C@H](CC(=O)O)NC(=O)[C@@H]2CCCN2C(=O)[C@H](C)N)C(=O)N[C@@H](CCCNC(=N)N)C(=O)N2CCC[C@H]2C(N)=O)O[C@H](CO)[C@H](O)[C@@H]1O [APDThr(α-D-GalNAc)RP],"degradation, faster compared to the unnatural compound APDMeSer(α-D-GalNAc)RP",around 1.8 fold
